Among the data in ChEMBL document CHEMBL4130348, “Structure-activity relationship investigation for benzonaphthyridinone derivatives as novel potent Bruton's tyrosine kinase (BTK) irreversible inhibitors” (Eur J Med Chem, 2017) are IC50 values, retold here.

Assay [1] deals with Tyrosine-protein kinase Blk (Homo sapiens, UniProt P51451). The assay can be described thus: Inhibition of recombinant full length His-tagged human BLK expressed in baculovirus expression system using poly (4:1 Glu, Tyr) as substrate preincubated for 1 hr followed by substrate addition measured after 1 hr by ADP-glo assay.
The target of assay [2] is T1, Tyrosine-protein kinase JAK3 (Homo sapiens, UniProt P52333).
T1 sequence (P52333 whole entry): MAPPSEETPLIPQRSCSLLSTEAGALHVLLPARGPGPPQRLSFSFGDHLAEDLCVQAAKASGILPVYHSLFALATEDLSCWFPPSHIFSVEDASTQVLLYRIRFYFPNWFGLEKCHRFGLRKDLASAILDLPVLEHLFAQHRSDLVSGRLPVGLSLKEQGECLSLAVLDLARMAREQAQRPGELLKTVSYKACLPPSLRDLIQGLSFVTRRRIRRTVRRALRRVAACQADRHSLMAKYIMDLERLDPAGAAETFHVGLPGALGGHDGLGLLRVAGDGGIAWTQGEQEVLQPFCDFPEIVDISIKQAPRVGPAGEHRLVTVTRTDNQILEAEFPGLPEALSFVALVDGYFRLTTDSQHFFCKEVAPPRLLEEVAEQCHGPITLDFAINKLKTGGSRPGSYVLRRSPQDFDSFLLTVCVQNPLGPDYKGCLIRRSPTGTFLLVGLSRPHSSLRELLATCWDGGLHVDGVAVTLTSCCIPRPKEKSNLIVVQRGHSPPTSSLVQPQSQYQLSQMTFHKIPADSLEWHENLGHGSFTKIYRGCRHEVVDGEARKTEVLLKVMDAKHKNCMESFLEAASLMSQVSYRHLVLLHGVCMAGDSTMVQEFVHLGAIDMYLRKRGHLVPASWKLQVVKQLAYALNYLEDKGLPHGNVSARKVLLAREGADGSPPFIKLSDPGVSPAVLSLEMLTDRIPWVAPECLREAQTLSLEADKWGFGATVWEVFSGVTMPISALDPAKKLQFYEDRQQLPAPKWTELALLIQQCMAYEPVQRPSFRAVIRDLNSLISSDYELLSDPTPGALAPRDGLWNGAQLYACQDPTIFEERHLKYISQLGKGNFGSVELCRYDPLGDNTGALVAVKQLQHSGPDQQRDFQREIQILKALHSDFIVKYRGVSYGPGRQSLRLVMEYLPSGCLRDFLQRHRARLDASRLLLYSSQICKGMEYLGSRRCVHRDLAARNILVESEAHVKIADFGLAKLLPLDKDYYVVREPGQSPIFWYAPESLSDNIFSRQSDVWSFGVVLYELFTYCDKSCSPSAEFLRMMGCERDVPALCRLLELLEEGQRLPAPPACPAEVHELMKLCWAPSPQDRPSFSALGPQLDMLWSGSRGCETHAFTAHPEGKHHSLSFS
The assay can be described thus: Inhibition of recombinant GST-tagged human JAK3 expressed in baculovirus expression system using poly (4:1 Glu, Tyr) as substrate preincubated for 1 hr followed by substrate addition measured after 1 hr by ADP-glo assay. A general note: In ADP-Glo the light output rises with the ADP produced.

In assay [3] the target is Tyrosine-protein kinase BTK (Homo sapiens, UniProt Q06187). The assay can be described thus: Inhibition of recombinant full length His-tagged human BTK expressed in baculovirus expression system using poly (4:1 Glu, Tyr) as substrate preincubated for 1 hr followed by substrate addition measured after 1 hr by ADP-glo assay.

pIC50: −log10 of the molar value.

Tyrosine-protein kinase Blk, sequence (P51451 whole entry): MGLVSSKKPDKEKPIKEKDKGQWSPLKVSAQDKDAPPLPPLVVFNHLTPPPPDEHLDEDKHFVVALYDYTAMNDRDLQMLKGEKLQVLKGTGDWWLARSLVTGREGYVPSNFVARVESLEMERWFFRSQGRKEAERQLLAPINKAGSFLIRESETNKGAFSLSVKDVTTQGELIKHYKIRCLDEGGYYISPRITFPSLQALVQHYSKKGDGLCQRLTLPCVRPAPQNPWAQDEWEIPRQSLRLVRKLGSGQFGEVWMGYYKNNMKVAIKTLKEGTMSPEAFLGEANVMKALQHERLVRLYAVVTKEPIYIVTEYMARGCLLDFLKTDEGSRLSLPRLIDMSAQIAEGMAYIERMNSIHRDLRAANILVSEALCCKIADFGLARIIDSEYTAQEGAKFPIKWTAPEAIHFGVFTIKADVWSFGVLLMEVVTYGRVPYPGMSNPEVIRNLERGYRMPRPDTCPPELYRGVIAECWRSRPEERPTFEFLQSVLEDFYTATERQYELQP
Tyrosine-protein kinase BTK, sequence (Q06187 whole entry): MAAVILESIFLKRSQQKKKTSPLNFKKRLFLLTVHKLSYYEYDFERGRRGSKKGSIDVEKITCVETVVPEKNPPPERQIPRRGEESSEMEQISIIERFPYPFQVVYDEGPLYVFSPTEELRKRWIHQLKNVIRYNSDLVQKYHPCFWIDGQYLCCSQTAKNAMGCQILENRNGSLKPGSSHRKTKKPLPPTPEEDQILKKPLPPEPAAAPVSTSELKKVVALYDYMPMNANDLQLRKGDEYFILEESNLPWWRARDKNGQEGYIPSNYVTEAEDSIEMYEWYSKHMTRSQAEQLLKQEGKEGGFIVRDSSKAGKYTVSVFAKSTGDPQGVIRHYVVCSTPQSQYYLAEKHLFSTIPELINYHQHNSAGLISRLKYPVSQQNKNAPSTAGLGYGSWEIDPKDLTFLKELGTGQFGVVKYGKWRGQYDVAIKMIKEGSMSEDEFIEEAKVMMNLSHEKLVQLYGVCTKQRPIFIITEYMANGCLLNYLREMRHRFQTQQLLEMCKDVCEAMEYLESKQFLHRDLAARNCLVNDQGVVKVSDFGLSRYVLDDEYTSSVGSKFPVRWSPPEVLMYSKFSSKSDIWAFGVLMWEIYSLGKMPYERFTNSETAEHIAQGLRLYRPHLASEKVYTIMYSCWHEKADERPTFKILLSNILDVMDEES

In the case of `C=CC(=O)Nc1cc(-n2c(=O)ccc3cnc4ccc(-c5ccc(NC(=O)NC)cc5)cc4c32)ccc1C`, the results for the negative-log IC50 (pIC50) in assay [1], in assay [2] and in assay [3] were 5.95, 6.66 and 7.10, respectively.

Take `C=CC(=O)Nc1cc(-n2c(=O)ccc3cnc4ccc(/C=C/c5ccccc5)cc4c32)ccc1C`: the pIC50 (usually the negative decadic logarithm of the IC50, by convention in mol/L) in assay [1] was 6.22; in assay [2] it was 5.25.

As to `C=CC(=O)Nc1cc(-n2c(=O)ccc3cnc4ccc(-c5ccoc5)cc4c32)ccc1C`, the pIC50 was 5.68 in assay [1] and 7.76 in assay [2].

For the compound `C=CC(=O)Nc1cc(-n2c(=O)ccc3cnc4ccc(-c5cnc6ccccc6c5)cc4c32)ccc1C`, the pIC50 in assay [1] is 6.53; in assay [2], 6.01.

`C=CC(=O)Nc1cccc(-n2c(=O)ccc3cnc4ccc(-c5ccc(N)nc5)cc4c32)c1`: the negative-log IC50 (pIC50) in assay [1] is 6.47; in assay [2], 6.18.

Consider `C=CC(=O)Nc1cc(-n2c(=O)ccc3cnc4ccc(-c5ccc6c(c5)OCCO6)cc4c32)ccc1C`, for which the values for the negative-log IC50 (pIC50) in assay [1] and in assay [2] were 6.80 and 6.72, respectively.

Take `C=CC(=O)Nc1cc(-n2c(=O)ccc3cnc4ccc(-c5ccsc5)cc4c32)ccc1C`: the values for the pIC50 in assay [1] and in assay [2] were 6.47 and 7.41, respectively.

As to `C=CC(=O)N1CCc2ccc(-n3c(=O)ccc4cnc5ccc(-c6cnc7ccccc7c6)cc5c43)cc21`, the negative logarithm of the IC50 (pIC50) in assay [1] is 6.72; in assay [2] it was 6.01; in assay [3], 8.15.
